Experimental data taken from EPA's ToxRefDB 2.

Key:
[1] = system: rat; conditions: Multigenerational reproductive toxicity study, sprague dawley, Oral, Feed, dose end: 2 generation
[2] = system: rat; conditions: Prenatal developmental toxicity study, wistar, Oral, Gavage/Intubation, dose end: 8 GD, group: maternal
[3] = system: mouse; conditions: Combined chronic toxicity/carcinogenicity, b6c3f1, Oral, Feed, dose end: 78 week, group: systemic
[4] = system: rat; conditions: Combined chronic toxicity/carcinogenicity; fischer; Oral; Feed; dose end: 78 week; group: systemic; systemic / pathology microscopic / spleen / fibrosis
[5] = system: dog; conditions: Chronic toxicity; beagle; Oral; Feed; dose end: 52 week; group: systemic; systemic / clinical chemistry / alkaline phosphatase (alp/alk) / alkaline phosphatase (alp/alk) + systemic / clinical chemistry / …
[6] = system: rat; conditions: Combined chronic toxicity/carcinogenicity, sprague dawley, Oral, Feed, dose end: 30 month, group: systemic
[7] = system: mouse; conditions: Carcinogenicity, cd1, Oral, Feed, dose end: 105 week, group: systemic
[8] = system: dog; conditions: Subchronic oral toxicity in nonrodent, beagle, Feed, dose end: 90 day, group: systemic, systemic / in life observation / clinical signs / pulse/pressure + systemic / organ weight / liver / nos
[9] = system: rat; conditions: Multigenerational reproductive toxicity study, sprague dawley, Oral, Gavage/Intubation, dose end: 1 generation
[10] = system: dog; conditions: Subchronic oral toxicity in nonrodent, beagle, Capsule, dose end: 90 day, group: systemic, systemic / clinical chemistry / alanine aminotransferase (alt/sgpt) / alanine aminotransferase (alt/sgpt) + systemic / clinical chemistry / …
[11] = system: rat; conditions: Subchronic oral toxicity in rodents, sprague dawley, Gavage/Intubation, dose end: 90 day, group: systemic
[12] = system: rat; conditions: Combined chronic toxicity/carcinogenicity, other, Oral, Feed, dose end: 104 week, group: systemic
[13] = system: rat; conditions: Multigenerational reproductive toxicity study, sprague dawley, Oral, Feed, dose end: 2 generation; remark: listed apart in the source
[14] = system: rat; conditions: Subchronic oral toxicity in rodents, sprague dawley, Feed, dose end: 90 day, group: systemic
[15] = system: mouse; conditions: Carcinogenicity, cd1, Oral, Feed, dose end: 78 week, group: systemic
[16] = system: mouse; conditions: Subchronic oral toxicity in rodents, b6c3f1, Water, dose end: 13 week
[17] = system: rat; conditions: Subchronic oral toxicity in rodents, fischer, Water, dose end: 13 week, group: systemic
[18] = system: mouse; conditions: Carcinogenicity, b6c3f1, Oral, Water, dose end: 2 year, group: systemic
[19] = system: rat; conditions: Combined chronic toxicity/carcinogenicity; sprague dawley; Oral; [Not Specified]; dose end: 24 month; group: systemic; systemic / hematology / erythrocyte (rbc) count differential / erythrocyte (rbc)
[20] = system: dog; conditions: Chronic toxicity; beagle; Oral; Feed; dose end: 52 week; group: systemic; systemic / clinical chemistry / alkaline phosphatase (alp/alk) / alkaline phosphatase (alp/alk) + systemic / organ weight / liver / absolute…
[21] = system: mouse; conditions: Carcinogenicity; cd1; Oral; Feed; dose end: 18 month; group: systemic; systemic / pathology microscopic / lung / adenoma
[22] = system: dog; conditions: Subchronic oral toxicity in nonrodent, beagle, Feed, dose end: 13 week, group: systemic
[23] = group: offspring, developmental / developmental landmark / vaginal opening / vaginal opening + systemic / in life observation / body weight / offspring (pup) …
[24] = group: parental, systemic / in life observation / body weight / body weight + systemic / in life observation / body weight / body weight gain
[25] = reproductive / reproductive performance / postimplantation loss / postimplantation loss + systemic / in life observation / body weight / …
[26] = systemic / in life observation / food consumption / food consumption
[27] = systemic / in life observation / body weight / body weight
[28] = systemic / in life observation / body weight / body weight + systemic / pathology microscopic / spleen / hemangiosarcoma
[29] = systemic / clinical chemistry / thyroxine (t4) / thyroxine (t4), total + systemic / organ weight / liver / absolute + systemic / organ …
[30] = systemic / in life observation / body weight / body weight + systemic / in life observation / body weight / body weight gain + systemic / …
[31] = group: offspring, systemic / organ weight / kidney / absolute + systemic / organ weight / liver / absolute
[32] = group: offspring, systemic / organ weight / kidney / absolute + systemic / organ weight / liver / absolute + systemic / in life observation / body weight / …
[33] = group: parental, systemic / organ weight / kidney / absolute + systemic / organ weight / liver / absolute
[34] = group: parental, systemic / organ weight / kidney / absolute + systemic / organ weight / liver / absolute + systemic / in life observation / body weight / …
[35] = group: reproductive, reproductive / reproductive performance / reproductive performance other / NOS + reproductive / reproductive performance / fertility / …
[36] = systemic / in life observation / body weight / body weight gain
[37] = systemic / in life observation / body weight / body weight gain + systemic / clinical chemistry / cholesterol / cholesterol + systemic / …
[38] = systemic / pathology microscopic / liver / vacuolization
[39] = systemic / pathology microscopic / liver / vacuolization + systemic / pathology microscopic / liver / hyperplasia + systemic / pathology …
[40] = group: offspring, systemic / in life observation / body weight / offspring (pup) weight + systemic / in life observation / body weight / offspring (pup) …
[41] = group: parental, systemic / in life observation / body weight / body weight + systemic / in life observation / body weight / body weight gain + systemic / …
[42] = systemic / clinical chemistry / alanine aminotransferase (alt/sgpt) / alanine aminotransferase (alt/sgpt) + systemic / clinical chemistry / …
[43] = systemic / pathology microscopic / liver / hypertrophy + systemic / pathology microscopic / liver / necrosis
[44] = systemic / pathology microscopic / liver / hypertrophy + systemic / pathology microscopic / liver / necrosis + systemic / pathology …
[45] = group: maternal, reproductive / reproductive performance / estrous cycle / abnormal
[46] = group: systemic, systemic / in life observation / body weight / body weight + systemic / in life observation / body weight / body weight gain + systemic / in…
[47] = systemic / hematology / [other] / [other] + systemic / hematology / jolly bodies / jolly bodies + systemic / hematology / leukocyte (wbc) …
[48] = systemic / hematology / leukocyte (wbc) count differential / leukocyte (wbc) + systemic / hematology / lymphocyte / lymphocyte
[49] = systemic / in life observation / body weight / body weight + systemic / organ weight / lung / absolute + systemic / pathology microscopic / …
[50] = systemic / pathology microscopic / liver / angiectasis + systemic / pathology microscopic / liver / eosinophilic focus + systemic / …
[51] = systemic / clinical chemistry / albumin / albumin + systemic / clinical chemistry / albumin-globulin ratio / albumin-globulin ratio + …

CC(C)(C)CC(C)(C)c1ccc(O)cc1 [4-(1,1,3,3-Tetramethylbutyl)phenol]
LEL [1, 23]: 100 mg/kg/day
LOAEL [1, 23]: > 100 mg/kg/day
NEL [1, 23]: 10 mg/kg/day
NOAEL [1, 23]: ≥ 100 mg/kg/day
LEL [1, 24]: 100 mg/kg/day
LOAEL [1, 24]: > 100 mg/kg/day
NEL [1, 24]: 10 mg/kg/day
NOAEL [1, 24]: ≥ 100 mg/kg/day
LOAEL [2, 25]: > 125 mg/kg/day
NOAEL [2, 25]: ≥ 125 mg/kg/day
LEL [2, 26]: 15.6 mg/kg/day
NEL [2, 26]: < 15.6 mg/kg/day

Nc1ccc(Cl)cc1 [4-Chloroaniline]
LOAEL [3, 27]: 375 mg/kg/day
NOAEL [3, 27]: < 375 mg/kg/day
LEL [3, 28]: 375 mg/kg/day
NEL [3, 28]: < 375 mg/kg/day
LEL [4]: 12.5 mg/kg/day
LOAEL [4]: 12.5 mg/kg/day
NEL [4]: < 12.5 mg/kg/day
NOAEL [4]: < 12.5 mg/kg/day

Clc1ccccc1-c1nnc(-c2ccccc2Cl)nn1 [Clofentezine]
LEL [5]: 25 mg/kg/day
LOAEL [5]: 25 mg/kg/day
NEL [5]: 1.25 mg/kg/day
NOAEL [5]: 1.25 mg/kg/day
LEL [6, 29]: 17.3 mg/kg/day
LOAEL [6, 29]: 17.3 mg/kg/day
NOAEL [6, 29]: 1.72 mg/kg/day
NEL ([6]; systemic / pathology microscopic / liver / hypertrophy + systemic / pathology microscopic / liver / vacuolization): 1.72 mg/kg/day
LOAEL [7, 30]: > 544 mg/kg/day
NEL [7, 30]: 5 mg/kg/day
NOAEL [7, 30]: ≥ 544 mg/kg/day
LEL ([7]; systemic / pathology gross / liver / mass): 50.7 mg/kg/day
LEL [8]: 80 mg/kg/day
LOAEL [8]: 80 mg/kg/day
NEL [8]: < 80 mg/kg/day
NOAEL [8]: < 80 mg/kg/day

CCOc1ccc2c(c1)C(C)=CC(C)(C)N2 [Ethoxyquin]
LEL [9, 31]: 75 mg/kg/day
NEL [9, 31]: < 75 mg/kg/day
LOAEL [9, 32]: > 300 mg/kg/day
NOAEL [9, 32]: ≥ 300 mg/kg/day
LEL [9, 33]: 75 mg/kg/day
NEL [9, 33]: < 75 mg/kg/day
LOAEL [9, 34]: > 300 mg/kg/day
NOAEL [9, 34]: ≥ 300 mg/kg/day
LEL [9, 35]: 300 mg/kg/day
LOAEL [9, 35]: > 300 mg/kg/day
NEL [9, 35]: 150 mg/kg/day
NOAEL [9, 35]: ≥ 300 mg/kg/day
LEL [10]: 4 mg/kg/day
LOAEL [10]: 4 mg/kg/day
NEL [10]: 2 mg/kg/day
NOAEL [10]: 2 mg/kg/day
LEL [11, 36]: 40 mg/kg/day
LOAEL [11, 36]: 40 mg/kg/day
NEL [11, 37]: 20 mg/kg/day
NOAEL [11, 37]: 20 mg/kg/day

CCOC(=O)COc1cc(-c2nn(C)c(OC(F)F)c2Cl)c(F)cc1Cl [Pyraflufen-ethyl]
LEL [12, 38]: 86.7 mg/kg/day
LOAEL [12, 38]: 86.7 mg/kg/day
NEL [12, 39]: 17.2 mg/kg/day
NOAEL [12, 39]: 17.2 mg/kg/day
LEL [13, 40]: 721 mg/kg/day
LOAEL [13, 40]: 721 mg/kg/day
NEL [13, 40]: 70.8 mg/kg/day
NOAEL [13, 40]: 70.8 mg/kg/day
LEL [13, 41]: 721 mg/kg/day
LOAEL [13, 41]: 721 mg/kg/day
NEL [13, 41]: 70.8 mg/kg/day
NOAEL [13, 41]: 70.8 mg/kg/day
LOAEL [14, 42]: 1490 mg/kg/day
NEL [14, 42]: 85.6 mg/kg/day
NOAEL [14, 42]: 456 mg/kg/day
LEL ([14]; systemic / organ weight / brain / relative to body weight): 456 mg/kg/day
LEL [15, 43]: 98.3 mg/kg/day
LOAEL [15, 43]: 98.3 mg/kg/day
NEL [15, 44]: 19.6 mg/kg/day
NOAEL [15, 44]: 19.6 mg/kg/day

CCOC(N)=O [Urethane]
LEL [16, 45]: 147 mg/kg/day
LOAEL [16, 45]: > 1330 mg/kg/day
NEL [16, 45]: 44 mg/kg/day
NOAEL [16, 45]: ≥ 1330 mg/kg/day
LOAEL [16, 46]: > 1330 mg/kg/day
NEL [16, 46]: 44 mg/kg/day
NOAEL [16, 46]: ≥ 1330 mg/kg/day
LEL ([16]; group: systemic, systemic / in life observation / body weight / body weight + systemic / in life observation / body weight / body weight gain + systemic / …): 147 mg/kg/day
LOAEL [17, 47]: > 525 mg/kg/day
NOAEL [17, 47]: ≥ 525 mg/kg/day
LEL [17, 48]: 11 mg/kg/day
NEL [17, 48]: < 11 mg/kg/day
LOAEL [18, 49]: 0.325 mg/kg/day
NOAEL [18, 49]: 0.105 mg/kg/day
LEL [18, 50]: 0.035 mg/kg/day
NEL [18, 50]: < 0.035 mg/kg/day

CCC(C)(NC(=O)c1cc(Cl)c(C)c(Cl)c1)C(=O)CCl (stereo not drawn) [Zoxamide]
LEL [19]: 51 mg/kg/day
LOAEL [19]: > 1060 mg/kg/day
NEL [19]: < 51 mg/kg/day
NOAEL [19]: ≥ 1060 mg/kg/day
LEL [20]: 255 mg/kg/day
LOAEL [20]: 255 mg/kg/day
NEL [20]: 50 mg/kg/day
NOAEL [20]: 50 mg/kg/day
LEL [21]: 1290 mg/kg/day
LOAEL [21]: > 1290 mg/kg/day
NEL [21]: 326 mg/kg/day
NOAEL [21]: ≥ 1290 mg/kg/day
LOAEL [22, 51]: 1050 mg/kg/day
NEL [22, 51]: 61.8 mg/kg/day
NOAEL [22, 51]: 322 mg/kg/day
LEL ([22]; systemic / organ weight / liver / absolute + systemic / organ weight / liver / relative to body weight): 322 mg/kg/day
